From ChEMBL document CHEMBL1139061, “Ac2-DPD, the bis-(O)-acetylated derivative of 4,5-dihydroxy-2,3-pentanedione (DPD) is a convenient stable precursor of bacterial quorum sensing autoinducer AI-2” (Bioorg Med Chem Lett, 2007) come the findings set out here.

Calls of active or inactive are those of the source. The calls are words filed in the database; no cut-off is given here.

Test [1] relates to Vibrio harveyi. In words: Induction of bioluminescence in Vibrio harveyi after 4 hrs by luminescence reporter assay. The settings on record: read-out: IC50 (the source's name).
The test system of test [2] is Salmonella typhimurium. As to the kind of experiment: Induction of beta-galactosidase production in Salmonella enterica Typhimurium MET844 after 4 hrs by beta-Gal reporter gene assay. The format is functional, organism-based. The settings on record: Salmonella enterica subsp. enterica serovar Typhimurium. For orientation: A reporter such as luciferase makes a cellular process visible.

Test [3] concerns Bacillus cereus. As to the kind of experiment: Inhibition of biofilm formation in Bacillus cereus at 8 uM after 24 hrs by 96-well polyvinylchloride microtiter plate assay. It is filed as functional, organism-based.

Take `CC(=O)OCC(OC(C)=O)C(=O)C(C)=O` (stereo unspecified): the EC50 in test [1] was determined as 2.4 µM.
With `CC(=O)C(=O)C(O)CO` (stereo unspecified), the result in test [2] was Active.
For `CC(=O)OC[C@H](OC(C)=O)C(=O)C(C)=O`, the result in test [2] and in test [3] was Active. Moreover, the EC50 in test [1] was determined as 2.1 µM.
For `CC(=O)C(=O)[C@@H](O)CO`, the result in test [3] was Active.
